Data as given in ChEMBL document CHEMBL1201862, “PubChem BioAssay data set” (2004).
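Each compound was tested at five concentrations against cells in 96-well plates for 48 hours. Abbreviation: GI50, concentration required for 50% inhibition of growth.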 Active and inactive are the calls of the source. No stated cut-off is given here; in the data, active = GI50 up to about 1.1 µM and inactive = higher.

Key:
Assay in all cases: growth of human tumour cells (NCI), 48 h
OVCAR-8 = system: OVCAR-8
T47D = system: T47D
RXF 393 = system: RXF 393
COLO 205 = system: COLO 205
HCT-116 = system: HCT-116
SF-539 = system: SF-539
NCI-H460 = system: NCI-H460
CCRF-CEM = system: CCRF-CEM
Hs-578T = system: Hs-578T
HT-29 = system: HT-29
M14 = system: M14
UACC-257 = system: UACC-257
A549 = system: A549
LOX IMVI = system: LOX IMVI
OVCAR-5 = system: OVCAR-5
OVCAR-4 = system: OVCAR-4
KM12 = system: KM12

Measured: GI50

CSc1nc2cc(S(=O)(=O)N3CCCCC3)ccc2s1
inactive: OVCAR-8 > 100 µM | T47D > 100 µM | RXF 393 > 100 µM | COLO 205 > 100 µM | HCT-116 > 100 µM | SF-539 > 100 µM | NCI-H460 > 100 µM | CCRF-CEM > 100 µM | Hs-578T > 100 µM | HT-29 > 100 µM | M14 > 100 µM | UACC-257 48.3 µM | A549 > 100 µM | LOX IMVI > 100 µM | OVCAR-5 > 100 µM | OVCAR-4 > 100 µM | KM12 > 100 µM

CC(C)(CO[C@H]1C[C@H]2CC[C@@]1(C)C2(C)C)[N+](=O)[O-]
inactive: OVCAR-8 22.6 µM | T47D 19.6 µM | RXF 393 11 µM | COLO 205 15.6 µM | HCT-116 15.3 µM | SF-539 16.4 µM | NCI-H460 19.6 µM | CCRF-CEM 18.8 µM | Hs-578T 27.4 µM | HT-29 13 µM | M14 13.3 µM | UACC-257 18.5 µM | A549 25.5 µM | LOX IMVI 18.1 µM | OVCAR-5 16.8 µM | OVCAR-4 30.3 µM | KM12 17.4 µM

COc1ccc(CCN2C(=O)C=CC2=O)cc1OC
inactive: OVCAR-8 19.8 µM | T47D 7.16 µM | RXF 393 4.9 µM | COLO 205 1.83 µM | HCT-116 3.53 µM | SF-539 17.3 µM | NCI-H460 21.5 µM | CCRF-CEM 1.85 µM | Hs-578T 32.4 µM | HT-29 6.31 µM | M14 9.84 µM | UACC-257 16.8 µM | A549 23 µM | LOX IMVI 18.5 µM | OVCAR-5 18.4 µM | OVCAR-4 1.88 µM | KM12 19.6 µM

CCOC(=O)NNC(=O)NCCNC(=O)NNC(=O)OCC
inactive: OVCAR-8 > 100 µM | T47D > 100 µM | RXF 393 > 100 µM | COLO 205 > 100 µM | HCT-116 > 100 µM | SF-539 > 100 µM | NCI-H460 > 100 µM | CCRF-CEM > 100 µM | Hs-578T > 100 µM | HT-29 > 100 µM | M14 > 100 µM | UACC-257 > 100 µM | A549 > 100 µM | LOX IMVI > 100 µM | OVCAR-5 69.3 µM | OVCAR-4 > 100 µM | KM12 > 100 µM

Cc1cc2c(cc1C)C(=O)C1(C2)Cc2c(C)ccc(C)c2C1=O (stereo unspecified)
inactive: OVCAR-8 > 100 µM | T47D 25.2 µM | RXF 393 84.7 µM | COLO 205 > 100 µM | HCT-116 > 100 µM | SF-539 > 100 µM | NCI-H460 > 100 µM | CCRF-CEM > 100 µM | Hs-578T 84.5 µM | M14 > 100 µM | UACC-257 > 100 µM | A549 > 100 µM | LOX IMVI > 100 µM | OVCAR-5 > 100 µM | OVCAR-4 > 100 µM | KM12 > 100 µM

COC(=O)c1c2c(cc3c1CC1(Cc4cc5c(c(C=O)c4C1)CCC5)C3)CCC2 (stereo unspecified)
inactive: OVCAR-8 42.8 µM | T47D 30.7 µM | RXF 393 30.7 µM | HCT-116 21.2 µM | SF-539 75.5 µM | NCI-H460 45 µM | CCRF-CEM 13.4 µM | Hs-578T 92.7 µM | HT-29 21.4 µM | M14 22.2 µM | UACC-257 21.2 µM | A549 27.9 µM | LOX IMVI 22.5 µM | OVCAR-5 67.8 µM | OVCAR-4 > 100 µM

COC(=O)C1=C(OC(=O)/C=C/c2ccc(Cl)cc2)C(C(=O)OC)[C@]2(O)[C@@H](C(=O)OC)[C@H]1C[C@@H](c1ccccc1)[C@@H]2C(=O)OC (stereo partly specified)
inactive: OVCAR-8 3.95 µM | T47D 5.87 µM | RXF 393 9.29 µM | COLO 205 4.43 µM | HCT-116 3.53 µM | SF-539 4.68 µM | NCI-H460 4.15 µM | CCRF-CEM 3.31 µM | Hs-578T 7.71 µM | HT-29 7.74 µM | M14 6.1 µM | UACC-257 26.2 µM | A549 3.7 µM | LOX IMVI 7.19 µM | OVCAR-5 17.7 µM | OVCAR-4 5.19 µM | KM12 4.89 µM

O=[N+]([O-])c1cc(C2ON=C(c3ccccc3)N2C23CC4CC(CC(C4)C2)C3)ccc1Cl (stereo unspecified)
inactive: OVCAR-8 > 100 µM | T47D > 100 µM | RXF 393 > 100 µM | COLO 205 > 100 µM | HCT-116 73.5 µM | SF-539 > 100 µM | NCI-H460 > 100 µM | CCRF-CEM > 100 µM | Hs-578T > 100 µM | HT-29 > 100 µM | M14 > 100 µM | UACC-257 > 100 µM | A549 > 100 µM | LOX IMVI > 100 µM | OVCAR-5 > 100 µM | OVCAR-4 > 100 µM | KM12 > 100 µM

O=C1/C(=C/c2ccccc2)CCc2ccc([N+](=O)[O-])cc21
inactive: OVCAR-8 82.6 µM | T47D > 51.6 µM | RXF 393 23.8 µM | COLO 205 > 100 µM | HCT-116 24.4 µM | SF-539 64.3 µM | NCI-H460 > 100 µM | CCRF-CEM 4.13 µM | Hs-578T 37.4 µM | HT-29 > 100 µM | M14 48.2 µM | UACC-257 39.5 µM | A549 > 100 µM | LOX IMVI 21.5 µM | OVCAR-5 > 100 µM | OVCAR-4 39.5 µM | KM12 42.3 µM

O=C(N/N=C(COc1cccc(Cl)c1)\N=C\c1ccncc1)c1ccncc1
inactive: OVCAR-8 > 100 µM | T47D > 100 µM | RXF 393 36.4 µM | COLO 205 > 100 µM | HCT-116 > 100 µM | SF-539 > 100 µM | NCI-H460 > 100 µM | CCRF-CEM > 100 µM | Hs-578T > 100 µM | HT-29 > 100 µM | M14 > 100 µM | UACC-257 > 100 µM | A549 > 100 µM | LOX IMVI > 100 µM | OVCAR-5 > 100 µM | OVCAR-4 > 100 µM | KM12 > 100 µM

Cc1nc(Nc2ccc(Cl)cc2Cl)sc1C(=O)Nc1ccccc1
inactive: OVCAR-8 > 100 µM | T47D 22.4 µM | RXF 393 33.3 µM | COLO 205 26.2 µM | HCT-116 35.1 µM | SF-539 > 100 µM | NCI-H460 37.9 µM | CCRF-CEM 34.1 µM | Hs-578T 47 µM | HT-29 35.3 µM | M14 80.9 µM | UACC-257 61.4 µM | A549 36.6 µM | LOX IMVI 23.4 µM | OVCAR-5 > 100 µM | OVCAR-4 73.6 µM | KM12 35.8 µM

COC1=C(OC)C(=O)C(Cc2c(-c3ccccc3)nc3sc(Cl)cn23)=C(C)C1=O
inactive: OVCAR-8 15.2 µM | T47D 23.4 µM | RXF 393 17.1 µM | COLO 205 18.7 µM | HCT-116 16.4 µM | SF-539 17.1 µM | NCI-H460 16 µM | CCRF-CEM 13.7 µM | Hs-578T 18.1 µM | HT-29 20.1 µM | M14 15.8 µM | UACC-257 16 µM | A549 21.7 µM | LOX IMVI 23.7 µM | OVCAR-5 28.2 µM | OVCAR-4 3.61 µM | KM12 17 µM

Cc1ccc(/C(=C\C(=O)C(=O)NC23CC4CC(CC(C4)C2)C3)Sc2ccccc2)cc1
inactive: OVCAR-8 > 10 µM | T47D > 10 µM | RXF 393 > 10 µM | COLO 205 3.5 µM | SF-539 > 10 µM | NCI-H460 > 10 µM | CCRF-CEM 4.75 µM | Hs-578T > 10 µM | HT-29 > 10 µM | M14 > 10 µM | UACC-257 > 10 µM | LOX IMVI > 10 µM | OVCAR-5 > 10 µM | OVCAR-4 6.43 µM | KM12 > 10 µM

CN1CCC2(CC1)/C(=N/C1CCCCC1)NC(=S)N2c1ccccc1
inactive: OVCAR-8 > 100 µM | T47D > 100 µM | RXF 393 > 100 µM | COLO 205 > 100 µM | HCT-116 > 100 µM | SF-539 > 100 µM | NCI-H460 > 100 µM | CCRF-CEM > 100 µM | Hs-578T 13.8 µM | HT-29 > 100 µM | M14 > 100 µM | UACC-257 > 100 µM | A549 > 100 µM | LOX IMVI > 100 µM | OVCAR-5 > 100 µM | OVCAR-4 > 100 µM | KM12 > 100 µM

COc1cccc2c(NNc3ccc(Cl)cc3)c3ccc([N+](=O)[O-])cc3nc12
inactive: T47D 5.43 µM | RXF 393 14.7 µM | COLO 205 21.6 µM | HCT-116 7.28 µM | SF-539 17.7 µM | NCI-H460 4.92 µM | CCRF-CEM 2.74 µM | Hs-578T 14.5 µM | HT-29 14.2 µM | M14 12.3 µM | UACC-257 19.2 µM | A549 12.6 µM | LOX IMVI 11.3 µM | OVCAR-5 22.9 µM | OVCAR-4 11.9 µM | KM12 18.7 µM

CC(C)CC(=O)NC(Nc1ccc(S(=O)(=O)Nc2ncccn2)cc1)(C(F)(F)F)C(F)(F)F
inactive: OVCAR-8 > 100 µM | T47D > 100 µM | RXF 393 20.4 µM | COLO 205 > 100 µM | HCT-116 > 100 µM | SF-539 > 100 µM | NCI-H460 > 100 µM | CCRF-CEM > 100 µM | Hs-578T > 100 µM | HT-29 > 100 µM | M14 > 100 µM | UACC-257 > 100 µM | A549 > 100 µM | LOX IMVI > 100 µM | OVCAR-5 > 100 µM | OVCAR-4 > 100 µM | KM12 > 100 µM
